{"source": "patent US9155796B2", "about": "“Hydrogels with covalently linked polypeptides” (SUSAVION BIOSCIENCES, INC., priority 2012, dated 2015)", "origin": "cited, not measured here", "data": [{"test_system": "peripheral blood mononuclear cells (PBMCs)", "conditions": "PBMC cultures; within 4 hours", "values": [{"substance": "(WNSTL-PEG2-)4-Lys2-Lys-PEG2-Cys[CH2CH(Me): CH2]—NH2 (not fully specified; tetravalent Lys dendrimer, PEG2 linkers, modified Cys amide; Therapeutic peptide) [SVH1B]", "increased PDGF secretion": "two- to four-fold"}, {"substance": "(NQHTPR-PEG2-)4-Lys2-Lys-PEG2-Cys[—CH2CH(Me): CH2]—NH2 (not fully specified; tetravalent Lys dendrimer, PEG2 linkers, modified Cys amide; Therapeutic peptide) [SV6D]", "increased PDGF secretion": "two- to four-fold"}, {"substance": "(VSNQH-PEG2-)4-Lys2-Lys-PEG2-Cys[—CH2CH(Me): CH2]—NH2 (not fully specified; tetravalent Lys dendrimer, PEG2 linkers, modified Cys amide; Therapeutic peptide) [SVD2]", "increased PDGF secretion": "two- to four-fold"}, {"substance": "(VQATQS-PEG2-)4-Lys2-Lys-PEG2-Cys[—CH2CH(Me): CH2]—NH2 (not fully specified; tetravalent Lys dendrimer, PEG2 linkers, modified Cys amide; Therapeutic peptide) [SVC1]", "increased PDGF secretion": "two- to four-fold"}]}]}
